Ends that are not written are not given here.
Tests used:
[1] = system: C57BL/6 mice with spinal cord contusion at T9; assay: Inflammation: CD45 and CD68 immunostained area after spinal cord contusion; format: in vivo
Procedure: Adjacent sections at each mm level were processed for double- or triple immunofluorescent staining to detect CD45 (leukocytes), CD68 (activated microglia/macrophages), PECAM1 (endothelial cells), αv, β3 or α5β1 integrin, or in some cases laminin (to define the so-called heterodomain or area of tissue loss). Slides were warmed for 20 minutes on a slide warmer, a ring of wax applied around the sections with a PAP pen (Invitrogen™, Carlsbad, Calif.) and the slides rinsed in 0.1 M Tris-buffered saline (TBS) for 10 min. […] To measure the volume of tissue loss as determined by laminin staining in the horizontal sections, the sections were processed using an ABC-DAB staining protocol.
Sections were examined using a Leica DMIRE2 brightfield and fluorescence microscope and images digitized with an attached Spot RTKE camera (Diagnostics Inc., Sterling Height, Mich.). EC, CD45, CD68 and PECAM staining through the entire plane of the transverse sections was digitized using a 5× objective and the area occupied by the staining calculated for the three sections per rostro-caudal level by using the threshold feature of Scion Image software (Scion Corporation, Frederick, Md.). […] The area of LEA was determined with Scion Image. To provide a measure of the number of blood vessels, the number of LEA-positive vessels intersecting 100 μm spaced horizontal (5) and vertical (6) lines were counted in each image. […] The software calculated the volume based on the section interval and the area per section and this was expressed as a percentage of the total 10 mm segment. […]

[2] = system: C57BL/6 mice with spinal cord contusion at T9; assay: Blood vessel permeability: luciferase extravasated into the spinal cord at the injury site; format: in vivo
Procedure: Increased permeability contributes to tissue loss following SCI and was measured here by the amount of luciferase that extravasated into the spinal cord at the injury site after i.v. injection 20 minutes before analysis.

[3] = system: C57BL/6 mice with spinal cord contusion at T9; assay: White matter sparing at the injury epicenter (eriochrome cyanine myelin staining) after spinal cord contusion; format: in vivo
Procedure: These mice were tested for overground locomotion using the Basso Mouse Scale (BMS) before the contusion and on the day of euthanasia.
To label endothelial cells of perfused blood vessels, 4 of the vehicle and 4 of the C16 mice received an intravenous injection of the lectin LEA 20 minutes before euthanasia.
To determine whether […] C16 would be neuroprotective, vehicle (n=8) or 100 μg/day C16 (n=9) was injected over 7 days. These mice were tested using the BMS before the contusion and on the last day.
To determine whether C16 had lasting neuroprotective effects, mice received daily injections with vehicle (n=8) or 100 μg/day C16 (n=9) for 14 days. […] These mice were evaluated every week by BMS and were euthanized after 6 weeks. […]
To detect myelin in white matter tracts, one of every five of the transverse sections at each rostro-caudal 1 mm level were stained with a modified eriochrome cyanine (EC) staining protocol (Rabchevsky et al., 2001, J Neurotrauma 18:513-522). […] The injury epicenter was determined for each mouse by the rostro-caudal level that contained the least amount of spared myelin per transverse section. […]
Sections were examined using a Leica DMIRE2 brightfield and fluorescence microscope and images digitized with an attached Spot RTKE camera (Diagnostics Inc., Sterling Height, Mich.). […] The area of LEA was determined with Scion Image. […]

[4] = system: C57BL/6 mice with spinal cord contusion at T9; assay: Perfused (LEA lectin-labeled) blood vessels in the injury penumbra after spinal cord contusion; format: in vivo; conditions: single i.v. injection immediately after injury; 24 hours
Procedure: Normal (n=3) and 7 day sham operated mice (n=5) also received intravenous LEA injections.
To pre-label perfused blood vessels, 100 μg in 100 μl of FITC-conjugated LEA (Lectin from Lycopersicon esculentum; Sigma, St. Louis, Mo.) was injected into the other jugular vein 30 minutes before euthanasia.

[5] = system: C57BL/6 mice with spinal cord contusion at T9; assay: Overground locomotor function, Basso Mouse Scale (BMS), after spinal cord contusion; format: in vivo
Procedure: To determine whether C16 had lasting neuroprotective effects, mice received daily injections with vehicle (n=8) or 100 μg/day C16 (n=9) for 14 days. The treatment was started 4 hours after the spinal cord injury consistent with the time it takes to diagnose most injured humans in the developed world. These mice were evaluated every week by BMS and were euthanized after 6 weeks.
Functional recovery from the spinal cord contusion was determined weekly by open-field overground locomotor performance using the Basso Mouse Scale (BMS; Basso et al., 2006, J Neurotrauma 23:635-659), with scores ranging from 0 (complete paralysis) to 9 (normal mobility). Left and right sides are scored separately and averaged for each mouse. Weight bearing is seen at a score of 5 but not at 4. Locomotor function was measured by placing the mouse for 4 min in the center of a circular enclosure (90 cm in diameter, 7 cm wall height) made of molded plastic with a smooth, non-slip floor. Before each evaluation, the mice were examined carefully for perineal infections, wounds in the limbs, or tail and foot autophagia, as they could influence stepping. Such mice were excluded from the BMS test. The mice were tested for baseline values before surgery. The mice in the 7-day experiments were tested on the day of euthanasia and the mice in the 6 week chronic group were tested every week starting on day 8 or 9 after the contusion.
Adult C57B1/6 mice received a contusion injury at the thoracic spine level 9. Starting 4 hours after the injury, the mice received daily intravenous injections of control vehicle, Ang-1 or Ang-1 plus C16 (all at 100 μg/day) for 7 days.
Functional recovery after SCI was determined weekly by open-field overground locomotor performance using the BMS (Basso et al., J Neurotrauma, 23(5), 635-659 (2006)). Before each evaluation, the mice were examined carefully for perineal infections, wounds in the limbs, or tail and foot autophagia, as they could influence stepping. Such mice were excluded from the BMS test. The mice were acclimatized to the testing area for at least 25 minutes, including individually handling for at least 5 minutes, for 3 days and then tested for baseline values before surgery. The mice in the 7-day experiments were tested on the day of euthanasia and the mice in the 6 week chronic group were tested every week starting on day 8 or 9 after the contusion.

[6] = system: monocytic THP-1 cells across human aortic endothelial cells; assay: Transendothelial migration assay; format: cell-based; conditions: SP3 600 μM; absence or presence of TNFα
Procedure: Human aortic endothelial cells (Lonza, Wakersville, Md.) were plated on permeable filters in Transwell® culture plates (Costar, Cambridge, Mass.) at 4×10^4 cells per well. They were grown for 72-96 hours to reach confluency at 37° C. in Dulbecco's modified Eagle's medium Ham's F-12 (DMEM F-12; BioWhittaker, Walkersville, Md.) plus EGM-2 growth factor supplements (EGM-2 SingleQuots™ from Lonza Walkersville Inc, containing hydrocortisone, hEGF, FBS, VEGF, hFGF-B, R3-IGF-1, ascorbic acid, heparin and gentamicin/amphotericin-B) and 10-20% fetal calf serum. Afterwards, the inner chamber of the Transwell® system was loaded with 2×10^5 monocytic THP-1 cells (American Type Culture Collection, Manassas, Va.) and preincubated in medium with or without 15 ng/ml of TNF-α (PeproTech, Rocky Hill, N.J.) for 5 hr at 37° C. C16 peptide was added into the medium of the inner chamber at 25, 50, 100, 200, 400, 600 μM, and SP3 was added at 600 μM. […] The monocytic THP-1 cells were allowed to transmigrate for 6 h at 37° C. and the number of THP-1 cells that crossed endothelial cell layer was counted. […]
Human aortic ECs (BioWhittaker, Walkersville, Md.) were plated on permeable filters in Transwell culture plates (Costar, Cambridge, Mass.) at 4×10^4 cells per well. […] THP-1 cells were allowed to transmigrate for 6 h at 37° C. and the number of THP-1 cells that crossed EC layer was counted. […]

[7] = molecular target: human αvβ3 integrin (human) (UniProt P06756); assay: cell-based or functional assay
[8] = Blood cell counts after 7 days of treatment; format: in vivo, mice; design: key to Leukocytes eosinophils / Leukocytes basophils / Erythrocytes / Leukocytes total / Leukocytes neutrophils / Leukocytes lymphocytes / Leukocytes monocytes: N = within the normal range; conditions: daily C16 for 7 days after T9 contusion; individual mice A, B
Procedure: (§1) To determine potential effects of C16 on the number of peripheral leukocytes, 1 ml blood was drawn from the heart just before perfusion-fixation in mice that had been treated with vehicle (n=3) or C16 (n=2) for 7 days treated. The blood was collected in EDTA-coated tubes and blood counts were performed by Drew Scientific Inc. (Oxford, Conn.).
as §1, with “vehicle” for “vehicle (n=3)”, “C16” for “C16 (n=2)”, “days.” for “days treated.”

[9] = system: peripheral leukocytes; assay: Blood cell counts after 7 days of treatment; format: in vivo, mice; design: key to Leukocytes eosinophils / Leukocytes basophils / Erythrocytes / Leukocytes total / Leukocytes neutrophils / Leukocytes lymphocytes / Leukocytes monocytes: N = within the normal range
Procedure: as §1
as §1, with “vehicle” for “vehicle (n=3)”, “C16” for “C16 (n=2)”, “days.” for “days treated.”

[10] = daily C16 for 7 days after T9 contusion, individual mice A, B

Sequence of human αvβ3 integrin (human) (P06756 31-1048, chain 1 of 2): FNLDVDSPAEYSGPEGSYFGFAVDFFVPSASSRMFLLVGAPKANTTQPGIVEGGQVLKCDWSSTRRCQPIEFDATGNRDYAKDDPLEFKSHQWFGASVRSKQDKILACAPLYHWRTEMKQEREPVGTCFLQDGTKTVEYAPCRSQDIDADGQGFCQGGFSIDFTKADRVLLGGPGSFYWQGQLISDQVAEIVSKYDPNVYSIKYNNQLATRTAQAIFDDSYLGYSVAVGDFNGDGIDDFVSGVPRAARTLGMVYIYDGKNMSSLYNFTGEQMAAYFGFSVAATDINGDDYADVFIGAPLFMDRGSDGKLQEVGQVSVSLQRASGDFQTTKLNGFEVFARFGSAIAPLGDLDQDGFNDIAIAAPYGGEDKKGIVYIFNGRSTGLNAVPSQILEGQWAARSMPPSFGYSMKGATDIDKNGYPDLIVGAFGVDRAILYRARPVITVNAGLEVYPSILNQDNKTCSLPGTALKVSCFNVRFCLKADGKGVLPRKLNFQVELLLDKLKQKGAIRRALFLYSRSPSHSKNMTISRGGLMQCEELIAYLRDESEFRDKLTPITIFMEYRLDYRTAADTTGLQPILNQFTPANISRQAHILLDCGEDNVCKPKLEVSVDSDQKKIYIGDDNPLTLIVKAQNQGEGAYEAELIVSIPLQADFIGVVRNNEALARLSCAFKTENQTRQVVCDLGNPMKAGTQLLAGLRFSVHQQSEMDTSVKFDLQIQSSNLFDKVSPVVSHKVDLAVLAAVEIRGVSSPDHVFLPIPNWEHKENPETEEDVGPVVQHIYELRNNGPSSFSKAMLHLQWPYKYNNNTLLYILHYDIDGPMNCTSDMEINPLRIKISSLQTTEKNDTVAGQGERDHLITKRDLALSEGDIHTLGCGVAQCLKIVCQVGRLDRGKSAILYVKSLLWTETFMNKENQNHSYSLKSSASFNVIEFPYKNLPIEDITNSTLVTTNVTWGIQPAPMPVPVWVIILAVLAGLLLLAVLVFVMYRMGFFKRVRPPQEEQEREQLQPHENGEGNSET
Sequence of human αvβ3 integrin (human) (P05106 27-788, chain 2 of 2, further chain): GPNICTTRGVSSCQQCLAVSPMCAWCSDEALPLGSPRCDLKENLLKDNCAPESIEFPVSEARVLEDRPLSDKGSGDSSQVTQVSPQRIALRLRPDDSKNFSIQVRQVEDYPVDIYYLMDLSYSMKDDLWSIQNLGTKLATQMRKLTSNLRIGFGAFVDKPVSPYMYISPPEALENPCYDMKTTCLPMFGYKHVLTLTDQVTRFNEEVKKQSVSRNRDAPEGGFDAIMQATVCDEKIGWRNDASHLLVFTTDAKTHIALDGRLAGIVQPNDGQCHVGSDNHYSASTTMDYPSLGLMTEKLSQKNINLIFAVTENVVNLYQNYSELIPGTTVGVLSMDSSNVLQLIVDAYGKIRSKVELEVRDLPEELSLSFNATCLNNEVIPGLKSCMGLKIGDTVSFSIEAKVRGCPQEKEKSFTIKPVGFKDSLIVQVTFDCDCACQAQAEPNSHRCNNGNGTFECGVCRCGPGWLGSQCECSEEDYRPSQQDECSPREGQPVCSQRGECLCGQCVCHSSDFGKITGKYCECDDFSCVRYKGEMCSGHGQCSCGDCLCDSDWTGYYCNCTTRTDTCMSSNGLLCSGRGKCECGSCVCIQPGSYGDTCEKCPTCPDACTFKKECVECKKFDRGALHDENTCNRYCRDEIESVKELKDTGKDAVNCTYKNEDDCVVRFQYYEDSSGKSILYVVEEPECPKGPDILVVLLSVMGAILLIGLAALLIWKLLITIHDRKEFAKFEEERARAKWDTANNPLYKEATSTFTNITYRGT

Angiopoietin-1 tetra-fibrinogen-like domain [Ang-1]
smaller area of CD68 staining than vehicle treated mice ([1]; 24 hours, 3 mm rostral to 3 mm caudal from the epicenter): ~25% | inflammation (CD45, CD68 area) compared with vehicle ([1]; all post-injury times, 3 mm rostral to 3 mm caudal from the epicenter): reduced inflammation | luciferase values versus vehicle ([2]; 24 hours following SCI): not different | luciferase values, of vehicle ([2]; 72 hours following SCI): 55±13% | cross-sectional area of white matter at the epicenter compared with vehicle ([3]; 7 and 42 day post-injury times): greater | number of LEA-positive blood vessels in the penumbra, of sham [4]: 40% | BMS score (9 point scale) ([5]; 100 μg/day i.v. for 7 days starting 4 hours after injury, behavioral analyses over 6 weeks): 5.5 | mice with a BMS score of 7 or above ([5]; i.v. for 7 days, at 43 days): 4/14 | mice with a BMS score of 7 and above ([5]; last two weeks of testing (5 and 6 weeks after injury)): 28%

RFSVAVSSHYPFWSR (SEQ ID NO:3) [SP3, reference compound]
effect on the inflammatory response ([1]; control peptide 100 μg/day, at 7 days): no significant effect | effect on monocyte transmigration [6]: no significant effect | white matter cross-sectional area at the injury epicenter, percent of sham-operated mice ([3]; 100 μg/day i.v. daily for 7 days, 7 days after contusion): 30±5% | BMS score ([5]; 100 μg/day i.v. daily for 7 days, 7 days following injury): 0.7±0.3

azide-free blocking antibody against human αvβ3 (Cat# MAB1976Z, Chemicon; also known as LM609)
monocyte (THP-1) transmigration across an endothelial cell layer, blocking antibody, with TNFα, without C16 [7]: 64% | monocyte transmigration across an EC layer, reduction by blocking antibody [7]: 36%

KAFDITYVRLKF [C16, KAFDITYVRLKF (SEQ ID NO:2)]
Erythrocytes [8]: N | Leukocytes basophils [9, 10]: N | Leukocytes eosinophils [9, 10]: N | Leukocytes lymphocytes [9, 10]: N | Leukocytes monocytes [9, 10]: N | Leukocytes neutrophils [9, 10]: N | Leukocytes total [9, 10]: N | Thrombocytes [9, 10]: low | white cell counts ([9]; treated for 7 days): within normal range

— patent US20090247466A1, “NEUROPROTECTIVE INTEGRIN-BINDING PEPTIDE AND ANGIOPOIETIN-1 TREATMENTS” (University of Louisville Research Foundation, priority 2008, published 2009)
